Data: US12310940B2, “Cell-permeable succinate compounds” (ABLIVA AB, priority 2014, dated 2025)
pIC50: −log10 of the molar value. “Also recorded” adds a separate entry of the source.

Tests used:
intact human platelets [1] = assay: Intervention on metformin- or rotenone-induced lactate production with cell-permeable succinate prodrugs; type: cell-based; conditions: for effect on rotenone-induced lactate production: 2 μM rotenone, repeated additions of 250 μM; for effect on lactate production of metformin-incubated cells: 10 mM metformin, additions of 250 μM each 30 minutes
Procedure: Lactate production of intact human platelets was determined in PBS containing 10 mM glucose.
(§1) Lactate levels are determined every 2 h (or more frequent eg every 30 min) using the Lactate Pro™ 2 blood lactate test meter (Arkray, Alere AB, Lidingö, Sweden) or similar types of measurements. Incubation is performed at 37° C. pH is measured at start, after 4 and after 8 h (or more frequently) of incubation using a Standard pH Meter, e.g. PHM210 (Radiometer, Copenhagen, Denmark). Drug candidates are added to the assay from start or following 30-60 min at concentrations within the range 10 μM-5 mM. […] In order to evaluate the specificity of the drug candidate, it is also tested in combination with a down-stream inhibitor of respiration such as the complex III inhibitor Antimycin at 1 μg/mL, which should abolish the effect of the drug candidate and restore the production of lactate. The use of antimycin is therefore also a control for undue effects of drug candidates on the lactate producing ability of the cells used in the assay. (See e.g. FIGS. 9, 10 and 11).
Lactate levels were measured in intervals of 30 min with the onset of the experiment. Additionally, pH was measured prior to the first addition of vehicle (dmso, control), the different cell-permeable succinate prodrugs (NV118, NV189, NV241) or succinate and at the end of the experiment.

[2] = patients; cited from earlier work
intact human platelets [3] = assay: Effect of metformin and phenformin on lactate production and pH of intact human platelets; type: cell-based; conditions: metformin 1 and 10 mM, phenformin 0.5 mM, rotenone 2 μM
Procedure: as §1
Incubation was performed at 37° C. at a stirrer speed of 750 rpm, and pH was measured at start, after 4 and after 8 h of incubation (n=4) using a PHM210 Standard pH Meter (Radiometer, Copenhagen, Denmark).

[4] = tested on: permeabilized human platelets; assay: cells; conditions: Platelet, read-out: IC50 for inhibition of OXPHOSCI
Procedure: (§3) Real-time respirometric measurements were performed using high-resolution oxygraphs (Oxygraph-2k, Oroboros Instruments, Innsbruck, Austria). The experimental conditions during the measurements were the following: 37° C., 2 mL active chamber volume and 750 rpm stirrer speed. […] For data recording, DatLab software version 4 and 5 were used (Oroboros Instruments, Innsbruck, Austria). Settings, daily calibration and instrumental background corrections were conducted according to the manufacturer's instructions. […] Lactate production of intact human platelets was determined in PBS containing 10 mM glucose. All measurements were performed at a platelet concentration of 200×10^6 cells per mL or a PBMC concentration of 5×10^6 cells per mL.
(§4) All respiratory, lactate and pH data are expressed as mean±SEM. Ratios are plotted as individuals and means. One-way ANOVA was used for one-factor comparison of three or more groups (concentration of drugs) and two-way mixed model ANOVA was used for two-factor comparison (time and concentration of drugs/treatment) of three or more groups. Post-hoc tests to compensate for multiple comparisons were done according to Holm-Sidak. Correlations were expressed as r^2 and P-values. […]
(§5) In order to investigate the specific target of biguanide toxicity, a protocol was applied using digitonin permeabilization of the blood cells and sequential additions of respiratory complex-specific substrates and inhibitors in MiR05 medium. […] Maximal uncoupled respiratory electron transport system capacity supported by convergent input through complex I and II (ETSCI+II) was evaluated by subsequent titration with the protonophore carbonyl-cyanide p-(trifluoromethoxy) phenylhydrazone (FCCP). […] Complex IV activity was calculated by subtracting the sodium azide value from the TMPD value. With exception of complex IV activity, all respiratory states were measured at steady-state and corrected for ROX. Complex IV activity was measured after ROX determination and not at steady-state.

[5] = tested on: permeabilized human platelets
Procedure: as §3, §4, §5

[6] = tested on: cells with inhibited complex I; assay: Screening assay (1): enhancement of mitochondrial energy producing function in cells with inhibited respiratory complex I (high-resolution respirometry); type: cell-based, human; design: key: graded either +, ++ or +++ in increasing order of potency; graded either +, ++ or +++ in increasing order of potency; graded either +, ++ or +++ in increasing order of potency; (+): Brackets [( )] indicate an intermediate effect; (++): Brackets [( )] indicate an intermediate effect; (+++) is between ++ and +++; conditions: increase in mitochondrial oxygen consumption in cells with inhibited complex I
Procedure: (§2) Measurement of mitochondrial respiration is performed in a high-resolution oxygraph (Oxygraph-2k, Oroboros Instruments, Innsbruck, Austria) at a constant temperature of 37° C. Isolated human platelets, white blood cells, fibroblasts, human heart muscle fibers or other cell types containing live mitochondria are suspended in a 2 mL glass chamber at a concentration sufficient to yield oxygen consumption in the medium of ≥10 pmol O2 s^−1 mL^−1.
(1) Assay for Enhancement of Mitochondrial Energy Producing Function in Cells with Inhibited Respiratory Complex I
Cells are placed in a buffer containing 110 mM sucrose, HEPES 20 mM, taurine 20 mM, K-lactobionate 60 mM, MgCl2 3 mM, KH2PO4 10 mM, EGTA 0.5 mM, BSA 1 g/l, pH 7.1. […] Compounds dissolved in DMSO are titrated in a range of 10 μM to 10 mM final concentration. Subsequently, cell membranes are permeabilised with digitonin (1 mg/1*10^6 plt) to allow entry of extracellularly released energy substrate or cell impermeable energy substrates. After stabilized respiration, Succinate 10 mM is added as a reference to enable respiration downstream of complex I. After the respiration stabilized the experiment is terminated by addition of Antimycin at final concentration 1 μg/mL and any residual non-mitochondrial oxygen consumption is measured. An increase in respiration rate in the described protocol is tightly coupled to ATP synthesis by oxidative phosphorylation unless cells are uncoupled (i.e. proton leak without production of ATP). Uncoupling is tested for by addition of the ATP synthase inhibitor oligomycin (1-2 μg mL^−1) in a protocol 3 where the extent of uncoupling corresponds to the respiratory rate following oligomycin addition.

intact cells [7] = assay: Screening assay (3): assay to assess uncoupling in intact cells; type: cell-based, human; design: key: graded either +, ++ or +++ in increasing order of potency; graded either +, ++ or +++ in increasing order of potency; graded either +, ++ or +++ in increasing order of potency; (+): Brackets [( )] indicate an intermediate effect; (++): Brackets [( )] indicate an intermediate effect; (+++) is between ++ and +++; conditions: for Convergent (Routine): increase in mitochondrial oxygen consumption induced by the compound; for Uncoupling: level of oxygen consumption after addition of oligomycin
Procedure: Measurement of mitochondrial respiration is performed in a high-resolution oxygraph (Oxygraph-2k, Oroboros Instruments, Innsbruck, Austria) at a constant temperature of 37° C. […] In the third protocol, the same buffer as described above is used. […] Subsequently, the ATP-synthase-inhibitor Oligomycin is added. A reduction in respiration is a measure of how much of the oxygen consumption that is coupled to ATP synthesis. No, or only a slight, reduction indicate that the compound is inducing a proton leak over the inner mitochondrial membrane. The uncoupler FCCP is then titrated to induce maximum uncoupled respiration. […] The experiment is terminated by the addition of 1 μg/mL of the complex III inhibitor Antimycin to measure non-mitochondrial oxygen consumption.

Intact human blood cells = assay: Screening assay (4): enhancement of mitochondrial energy producing function in cells with inhibited respiratory complex I in human plasma; type: cell-based; design: key: graded either +, ++ or +++ in increasing order of potency; graded either +, ++ or +++ in increasing order of potency; graded either +, ++ or +++ in increasing order of potency; (+): Brackets [( )] indicate an intermediate effect; (++): Brackets [( )] indicate an intermediate effect; (+++) is between ++ and +++; conditions: increase in mitochondrial oxygen consumption in cells with inhibited complex I incubated in human plasma
Procedure: Measurement of mitochondrial respiration is performed in a high-resolution oxygraph (Oxygraph-2k, Oroboros Instruments, Innsbruck, Austria) at a constant temperature of 37° C. […] Intact human blood cells are incubated in plasma from the same donor. […] The experiment is terminated by addition of Antimycin at final concentration 1 μg/mL and any residual non-mitochondrial oxygen consumption is measured.

intact cells [8] = assay: Screening assay (2): enhancement and inhibition of mitochondrial energy producing function in intact cells (FCCP uncoupled); type: cell-based, human; design: key to Convergent (FCCP): graded either +, ++ or +++ in increasing order of potency; graded either +, ++ or +++ in increasing order of potency; graded either +, ++ or +++ in increasing order of potency; (+): Brackets [( )] indicate an intermediate effect; (++): Brackets [( )] indicate an intermediate effect; (+++) is between ++ and +++; conditions: for Convergent (FCCP): increase in mitochondrial oxygen consumption induced by the compound, screening assay 2 (uncoupled conditions); for Toxicity: lowest concentration during compound titration at which a decrease in oxygen consumption is seen, screening assay 2
Procedure: as §2
(2) Assay for Enhancement and Inhibition of Mitochondrial Energy Producing Function in Intact Cells
In the second protocol the same buffer is used as described above. After basal respiration is established, the mitochondrial uncoupler FCCP is added at a concentration of 2 nM to increase metabolic demand.

intact cells [9] = assay: Assays exemplified in the patent (not specified further) for known succinate esters; type: cell-based
From the text: I. Assays for Evaluating Enhancement and Inhibition of Mitochondrial Energy Producing Function in Intact Cells
Four Typical Evaluation Protocols in Intact Cells are Utilized.

## CC(=O)OCOC(=O)CCC(=O)OCOC(C)=O [NV118]
Intact human platelets [1]
  effect on rotenone-induced lactate production: attenuated
  effect on lactate production of metformin-incubated cells: significantly decreased

## [H]/N=C(/N)N/C(=N/[H])NCCc1ccccc1 [phenformin]
[2]
  incidence of lactic acidosis: 4 cases per 10000 treatment-years
Intact human platelets [3]
  lactate produced over 8 h of treatment compared to control: significantly more lactate
[4]
  pIC50: 4.24
[5]
  effect on OXPHOSCI, OXPHOSCI+II and ETSCI+II: inhibited
  potency of inhibition of OXPHOSCI relative to metformin: 20 fold

## CC(=O)OCOC(=O)CCC(=O)OC(C)OC(C)=O (stereo not drawn) [NV241]
Intact human platelets [1]
  effect on rotenone-induced lactate production: attenuated
  effect on lactate production of metformin-incubated cells: significantly decreased

## CCC(=O)N[C@@H](CSC(=O)CCC(=O)O)C(=O)O [01-041, (R)-4-(2-carboxy-2-propionamidoethylthio)-4-oxobutanoic acid]
[6]
  CII: ++
Intact cells [7]
  Convergent (Routine): +
  Uncoupling: (+)
Intact human blood cells
  CII (plasma): +
Intact cells [8]
  Convergent (FCCP): +++
  Toxicity: 5 mM

## CC(=O)OC(C)OC(=O)CCC(=O)OC(C)OC(C)=O (stereo not drawn) [NV189]
Intact human platelets [1]
  effect on rotenone-induced lactate production: attenuated; also recorded: brought back to normal
  effect on lactate production of metformin-incubated cells: significantly decreased

## CCC(=O)NCCSC(=O)CCC(=O)O [01-114, 4-oxo-4-(2-propionamidoethylthio)butanoic acid]
[6]
  CII: ++
Intact cells [7]
  Convergent (Routine): +++
  Uncoupling: (+)
Intact human blood cells
  CII (plasma): +
Intact cells [8]
  Convergent (FCCP): ++
  Toxicity: 10 mM

## CCN(CC)C(=O)COCCSC(=O)CCC(=O)O [01-193, 4-(2-(2-(diethylamino)-2-oxoethoxy)ethylthio)-4-oxobutanoic acid]
[6]
  CII: +
Intact cells [7]
  Convergent (Routine): (++)
  Uncoupling: +
Intact human blood cells
  CII (plasma): (+)
Intact cells [8]
  Convergent (FCCP): +
  Toxicity: 5 mM

## CCOC(=O)CCC(=O)OCC [Diethyl succinate]
Intact cells [9]
  activity in the assays exemplified: inactive

## CCC(=O)N[C@@H](CSC(=O)CCC(=O)SC[C@H](NC(=O)CC)C(=O)N(CC)CC)C(=O)N(CC)CC [01-185, S,S-bis((R)-3-(diethylamino)-3-oxo-2-propionamidopropyl) butanebis(thioate)]
[6]
  CII: +
Intact cells [7]
  Convergent (Routine): (+)
  Uncoupling: (+)
Intact human blood cells
  CII (plasma): +
Intact cells [8]
  Convergent (FCCP): +
  Toxicity: 2 mM

## CC(=O)NCCSC(=O)CCC(=O)O [01-108, 4-(2-acetamidoethylthio)-4-oxobutanoic acid]
[6]
  CII: (++)
Intact cells [7]
  Convergent (Routine): ++
  Uncoupling: +
Intact human blood cells
  CII (plasma): (+)
Intact cells [8]
  Convergent (FCCP): ++
  Toxicity: 10 mM

## CC(=O)NCC(C)(C)SC(=O)CCC(=O)O [01-188, 4-(1-acetamido-2-methylpropan-2-ylthio)-4-oxobutanoic acid]
[6]
  CII: +
Intact cells [7]
  Convergent (Routine): +++
  Uncoupling: (+)
Intact human blood cells
  CII (plasma): +
Intact cells [8]
  Convergent (FCCP): +++
  Toxicity: 5 mM

## O=C(O)CCC(=O)O [succinate]
Intact human platelets [1]
  effect on lactate production of metformin-incubated cells: did not reduce; also recorded: did not change this

## COC(=O)CCC(=O)O [monomethyl succinate]
Intact cells [9]
  activity in the assays exemplified: inactive

## COC(=O)CCC(=O)OC [dimethyl succinate]
Intact cells [9]
  activity in the assays exemplified: inactive

## CCC(=O)N[C@@H](CSC(=O)CCC(=O)SC[C@H](NC(=O)CC)C(=O)OC)C(=O)OC [01-205, (R)-methyl 3-(4-((R)-3-methoxy-3-oxo-2-propionamidopropylthio)-4-oxobutanoylthio)-2-propionamidopropanoate]
[6]
  CII: ++
Intact cells [7]
  Convergent (Routine): +++
  Uncoupling: (+)
Intact human blood cells
  CII (plasma): +
Intact cells [8]
  Convergent (FCCP): ++
  Toxicity: 5 mM
